# Results from the supplement of paper PMC10307832.
# Experiments:
# Test in all cases: relative viability (nuclei count vs DMSO), 5 days (fraction); higher = more cells survive
# Lapatinib + Alpelisib = compound: CS(=O)(=O)CCNCc1ccc(-c2ccc3ncnc(Nc4ccc(OCc5cccc(F)c5)c(Cl)c4)c3c2)o1 [Lapatinib] + Cc1nc(NC(=O)N2CCC[C@H]2C(N)=O)sc1-c1ccnc(C(C)(C)C(F)(F)F)c1 [Alpelisib] (partner 2 µM)
# Summary of the method: (§1)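 Lung cancer cell lines, seeded in 1536-well plates, were treated the following day by pin tool with a single drug or with five library-drug doses (not always all listed) in √10 steps on top of a fixed anchor-drug dose. Cells were fixed and nuclei stained in one step after 5 days, and nuclei were counted. Relative viability is the nuclei count for treated wells divided by that for vehicle wells, reported as medians of duplicate plates.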
# Wnt-C59 + Navitoclax = compound: CC1=NC=CC(=C1)C2=CC=C(C=C2)CC(=O)NC3=CC=C(C=C3)C4=CN=CC=C4 [Wnt-C59] + CC1(C)CCC(c2ccc(Cl)cc2)=C(CN2CCN(c3ccc(C(=O)NS(=O)(=O)c4ccc(N[C@H](CCN5CCOCC5)CSc5ccccc5)c(S(=O)(=O)C(F)(F)F)c4)cc3)CC2)C1 [Navitoclax] (partner 0.5 µM)
# Summary of the method: as §1
# Lapatinib + AZD7762 = compound: CS(=O)(=O)CCNCc1ccc(-c2ccc3ncnc(Nc4ccc(OCc5cccc(F)c5)c(Cl)c4)c3c2)o1 [Lapatinib] + NC(=O)Nc1cc(-c2cccc(F)c2)sc1C(=O)N[C@H]1CCCNC1 [AZD7762] (partner 0.2 µM)
# Summary of the method: as §1
# Lapatinib + Foretinib = compound: CS(=O)(=O)CCNCc1ccc(-c2ccc3ncnc(Nc4ccc(OCc5cccc(F)c5)c(Cl)c4)c3c2)o1 [Lapatinib] + COc1cc2c(Oc3ccc(NC(=O)C4(C(=O)Nc5ccc(F)cc5)CC4)cc3F)ccnc2cc1OCCCN1CCOCC1 [Foretinib] (partner 0.25 µM)
# Summary of the method: as §1
Cell Line,relative viability (Lapatinib + Alpelisib; first compound 0.06325 µM),relative viability (Lapatinib + Alpelisib; first compound 0.2 µM),relative viability (Lapatinib + Alpelisib; first compound 0.6325 µM),relative viability (Lapatinib + Alpelisib; first compound 2 µM),relative viability (Wnt-C59 + Navitoclax; first compound 0.001 µM),relative viability (Wnt-C59 + Navitoclax; first compound 0.01 µM),relative viability (Wnt-C59 + Navitoclax; first compound 0.03162 µM),relative viability (Wnt-C59 + Navitoclax; first compound 0.1 µM),relative viability (Lapatinib + AZD7762; first compound 0.06325 µM),relative viability (Lapatinib + AZD7762; first compound 0.2 µM),relative viability (Lapatinib + AZD7762; first compound 0.6325 µM),relative viability (Lapatinib + AZD7762; first compound 2 µM),relative viability (Lapatinib + Foretinib; first compound 0.02 µM),relative viability (Lapatinib + Foretinib; first compound 0.06325 µM),relative viability (Lapatinib + Foretinib; first compound 0.2 µM),relative viability (Lapatinib + Foretinib; first compound 0.6325 µM),relative viability (Lapatinib + Foretinib; first compound 2 µM),relative viability (Lapatinib + Alpelisib; first compound 0.02 µM),relative viability (Lapatinib + AZD7762; first compound 0.02 µM)
NCI-H1734,0.489,0.653,0.736,0.657,0.856,0.811,0.86,0.838,0.42,0.587,0.507,0.541,0.842,0.694,0.804,0.888,0.779,,
NCI-H1666,0.835,0.671,0.485,0.244,1.14,0.909,1.01,0.863,0.815,0.762,0.778,0.619,0.815,0.868,0.873,0.652,0.558,0.744,0.573
BEN,0.904,1.19,0.909,0.853,0.0424,0.0676,0.0835,0.0708,0.704,0.587,0.855,0.556,,0.667,0.653,0.763,0.554,0.961,0.499
ChaGo-K-1,,,,,0.657,,1.07,1.18,0.805,0.926,0.942,0.882,0.907,0.936,0.879,0.951,0.835,,0.703
SK-MES-1,,0.709,0.629,0.33,1.2,1.17,1.3,1.16,,,,,0.826,0.499,0.969,0.908,0.516,0.698,
NCI-H3122,0.725,0.752,0.691,0.771,1.02,0.976,0.958,0.98,0.9,0.999,1.04,0.973,0.944,0.901,0.96,0.872,0.928,0.714,0.959
NCI-H1563,0.848,0.795,0.961,0.898,,,,,,,,,0.861,0.881,0.953,0.831,0.857,0.951,
CAL-12T,1.26,1.25,1.13,0.417,1.35,1.45,1.19,1.1,0.615,0.515,0.587,0.592,,1.12,1.03,1.02,0.954,1.05,
NCI-H1975,0.58,0.537,0.573,0.462,1.25,1.11,1.06,1.2,0.592,0.617,0.538,0.5,0.924,0.855,1.02,0.835,0.715,0.662,0.821
